Measurements published in patent US20240116988A1, “ANTI-ROR1 MACROCYCLIC PEPTIDES AND COMPOSITIONS” (BRISTOL-MYERS SQUIBB COMPANY, priority 2022, published 2024).
Positions of bridges follow the written chain, without caps; N, C: chain ends. Non-standard residues stand in square brackets, D forms with d. Residues, ends and D or L forms follow the SMILES beside them. ξ: configuration not given here. NMeY = CN[C@@H](Cc1ccc(O)cc1)C(=O)O; NMeF = CN[C@@H](Cc1ccccc1)C(=O)O; Phg = N[C@H](C(=O)O)c1ccccc1; ξY = NC(Cc1ccc(O)cc1)C(=O)O; AEEA = NCCOCCOCC(=O)O; ξL = CC(C)CC(N)C(=O)O; ξA = CC(N)C(=O)O; Sar = CNCC(=O)O

target: T1, human ROR1 (Homo sapiens, UniProt Q01973); assay: ROR1 high content cell-based binding assay; conditions: read-out: ROR1 Binding 293T Human HC Cell Based Assay IC50
T1 construct: host or cells: HEK 293T cells, Tet-on system induced with doxycycline
T1 sequence (Q01973 30-937): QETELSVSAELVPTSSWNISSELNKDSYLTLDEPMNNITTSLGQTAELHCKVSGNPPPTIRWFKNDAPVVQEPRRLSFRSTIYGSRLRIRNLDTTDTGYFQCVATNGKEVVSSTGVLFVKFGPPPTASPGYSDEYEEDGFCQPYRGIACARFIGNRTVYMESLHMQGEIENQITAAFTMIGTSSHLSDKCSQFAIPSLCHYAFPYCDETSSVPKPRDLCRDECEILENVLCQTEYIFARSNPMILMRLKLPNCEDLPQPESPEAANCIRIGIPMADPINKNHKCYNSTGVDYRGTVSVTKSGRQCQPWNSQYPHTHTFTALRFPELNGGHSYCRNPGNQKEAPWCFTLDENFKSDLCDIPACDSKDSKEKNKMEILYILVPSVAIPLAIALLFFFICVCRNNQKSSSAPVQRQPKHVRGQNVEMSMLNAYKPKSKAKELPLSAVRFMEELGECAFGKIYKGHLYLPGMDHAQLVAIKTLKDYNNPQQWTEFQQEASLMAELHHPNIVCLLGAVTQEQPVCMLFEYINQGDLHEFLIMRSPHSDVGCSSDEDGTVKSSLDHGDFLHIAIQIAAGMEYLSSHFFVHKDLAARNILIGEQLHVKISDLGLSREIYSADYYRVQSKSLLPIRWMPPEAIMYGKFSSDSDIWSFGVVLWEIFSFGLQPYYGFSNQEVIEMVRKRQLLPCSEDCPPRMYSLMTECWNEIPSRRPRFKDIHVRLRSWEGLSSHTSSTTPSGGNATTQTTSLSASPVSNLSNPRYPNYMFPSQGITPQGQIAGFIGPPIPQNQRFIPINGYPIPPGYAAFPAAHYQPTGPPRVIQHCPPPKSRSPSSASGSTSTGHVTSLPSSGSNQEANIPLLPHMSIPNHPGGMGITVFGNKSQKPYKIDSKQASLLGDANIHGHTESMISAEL
How it was run: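 Doxycycline-induced 293T cells expressing human ROR1, seeded overnight, were treated with compound plus 5-FAM-labeled ROR1-binding probe peptide (30 nM final) for 1 h at 37 °C. After washing and formaldehyde/Hoechst fixation, cell-bound probe fluorescence was read by high-content imaging.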

Row | IC50 | SMILES
1 | 553 nM | CC(C)C[C@@H]1NC(=O)C(C)NC(=O)[C@H](Cc2ccccc2)N(C)C(=O)CNC(=O)[C@H](Cc2ccc(O)cc2)NC(=O)[C@H](Cc2ccccc2)NC(=O)CSC[C@@H](C(N)=O)NC(=O)[C@H](Cc2c[nH]c3ccccc23)NC(=O)[C@H](Cc2ccc(O)cc2)NC1=O (stereo partly drawn) [Example 1107] ({CH2CO}-FYG[NMeF][ξA]LYWC-NH2; thioether N-9)
2 | 36 nM | CC[C@H](C)[C@@H]1NC(=O)[C@H](Cc2ccccc2)NC(=O)CSC[C@@H](C(=O)NCC(N)=O)NC(=O)[C@H](C)NC(=O)[C@H](Cc2ccccc2)NC(=O)[C@H](Cc2ccc(O)cc2)NC(=O)[C@H](Cc2c[nH]c3ccccc23)NC(=O)CNC(=O)[C@H](CCC(=O)O)NC(=O)[C@H](Cc2ccc(O)cc2)NC(=O)[C@H](C(C)C)NC(=O)[C@H](Cc2c[nH]c3ccccc23)NC1=O [Example 1008] ({CH2CO}-FIWVYEGWYFACG-NH2; thioether N-12)
3 | 39 nM | CC(C)C[C@@H]1NC(=O)[C@H](Cc2ccccc2)NC(=O)CSC[C@@H](C(=O)NCC(N)=O)NC(=O)[C@H](C(C)C)NC(=O)[C@H](Cc2ccccc2)N(C)C(=O)[C@H](CC(C)C)NC(=O)[C@H](Cc2c[nH]c3ccccc23)NC(=O)CN(C)C(=O)CNC(=O)[C@H](C(C)C)NC(=O)[C@H](Cc2c[nH]c3ccccc23)NC1=O [Example 1201]
4 | 126 nM | CC(C)C[C@@H]1NC(=O)[C@H](CC(N)=O)NC(=O)[C@H](Cc2ccc(O)cc2)N(C)C(=O)CNC(=O)[C@H](Cc2ccc(O)cc2)NC(=O)[C@H](Cc2ccccc2)NC(=O)CSC[C@@H](C(N)=O)NC(=O)[C@H](Cc2c[nH]c3ccccc23)NC(=O)[C@H](Cc2ccc(O)cc2)NC1=O [Example 1123] ({CH2CO}-FYG[NMeY]NLYWC-NH2; thioether N-9)
5 | 760 nM | CC(C)C[C@@H]1NC(=O)[C@H](Cc2ccc(O)cc2)NC(=O)[C@H](Cc2ccccc2)NC(=O)CSC[C@@H](C(=O)NCC(N)=O)NC(=O)[C@H](CC(C)C)NC(=O)[C@H](Cc2ccccc2)N(C)C(=O)[C@H](Cc2ccc(O)cc2)NC(=O)[C@H](Cc2c[nH]c3ccccc23)NC(=O)[C@H](CCC(=O)O)NC(=O)[C@H](CO)NC(=O)[C@H](Cc2ccc(O)cc2)NC(=O)[C@H](C(C)C)NC1=O [Example 1053] ({CH2CO}-FYLVYSEWY[NMeF]LCG-NH2; thioether N-12)
6 | 83 nM | CC(C)C[C@@H]1NC(=O)[C@H](Cc2ccc(O)cc2)NC(=O)[C@H](CCC(N)=O)NC(=O)CSC[C@@H](C(=O)NCC(N)=O)NC(=O)[C@H](CC(C)C)NC(=O)[C@H](Cc2ccccc2)N(C)C(=O)[C@H](Cc2ccc(O)cc2)NC(=O)[C@H](Cc2c[nH]c3ccccc23)NC(=O)CNC(=O)[C@H](CO)NC(=O)[C@H](Cc2ccc(O)cc2)NC(=O)[C@H](C(C)C)NC1=O [Example 1088] ({CH2CO}-QYLVYSGWY[NMeF]LCG-NH2; thioether N-12)
7 | 67 nM | CC(C)C[C@@H]1NC(=O)[C@H](Cc2ccccc2)NC(=O)CSC[C@@H](C(N)=O)NC(=O)[C@H](C(C)C)NC(=O)[C@H](Cc2ccccc2)N(C)C(=O)[C@H](CC(C)C)NC(=O)[C@H](Cc2c[nH]c3ccccc23)NC(=O)CN(C)C(=O)CNC(=O)[C@H](C(C)C)NC(=O)[C@H](Cc2c[nH]c3ccccc23)NC1=O [Example 1202] ({CH2CO}-FLWVG[Sar]WL[NMeF]VC-NH2; thioether N-11)
8 | 131 nM | CC(C)C[C@@H]1NC(=O)[C@H](Cc2ccccc2)NC(=O)CSC[C@@H](C(=O)NCC(=O)NCCOCCOCC(=O)O)NC(=O)[C@H](C)NC(=O)[C@H](Cc2ccc(O)cc2)NC(=O)[C@H](Cc2ccc(O)cc2)NC(=O)[C@H](Cc2c[nH]c3ccccc23)NC(=O)CNC(=O)[C@H](Cc2ccc(O)cc2)NC(=O)[C@H](CCCNC(=N)N)NC(=O)[C@H](C(C)C)NC(=O)[C@H](Cc2c[nH]c3ccccc23)NC1=O [Example 1087] ({CH2CO}-FLWVRYGWYYACG[AEEA]-OH; thioether N-12)
9 | 69 nM | CC(C)C[C@@H]1NC(=O)[C@H](Cc2c[nH]cn2)NC(=O)[C@H](Cc2ccccc2)N(C)C(=O)CNC(=O)[C@H](Cc2ccc(O)cc2)NC(=O)[C@@H](Cc2ccccc2)NC(=O)CSC[C@@H](C(N)=O)NC(=O)[C@H](Cc2c[nH]c3ccccc23)NC(=O)[C@H](Cc2ccc(O)cc2)NC1=O [Example 1117] ({CH2CO}-[dF]YG[NMeF]HLYWC-NH2; thioether N-9)
10 | 392 nM | CC(C)C[C@@H]1NC(=O)[C@H](Cc2ccc(O)cc2)NC(=O)[C@H](Cc2ccccc2)NC(=O)CSC[C@@H](C(=O)NCC(N)=O)NC(=O)[C@H](CC(C)C)NC(=O)[C@H](Cc2ccccc2)N(C)C(=O)[C@H](Cc2ccc(O)cc2)NC(=O)[C@H](Cc2c[nH]c3ccccc23)NC(=O)CNC(=O)CNC(=O)[C@H](CCCNC(=N)N)NC(=O)[C@H](C(C)C)NC1=O [Example 1032] ({CH2CO}-FYLVRGGWY[NMeF]LCG-NH2; thioether N-12)
11 | 361 nM | CC(C)C[C@@H]1NC(=O)[C@H](CCC(N)=O)NC(=O)[C@H](Cc2ccccc2)N(C)C(=O)CNC(=O)[C@H](Cc2ccc(O)cc2)NC(=O)[C@H](Cc2ccccc2)NC(=O)CSC[C@@H](C(N)=O)NC(=O)[C@H](Cc2c[nH]c3ccccc23)NC(=O)[C@H](Cc2ccc(O)cc2)NC1=O [Example 1110] ({CH2CO}-FYG[NMeF]QLYWC-NH2; thioether N-9)
12 | 147 nM | CC(C)C[C@@H]1NC(=O)[C@H](Cc2c[nH]c3ccccc23)NC(=O)[C@H](Cc2ccccc2)NC(=O)[C@H](Cc2c[nH]c3ccccc23)NC(=O)CNC(=O)[C@H](CO)NC(=O)[C@H](Cc2ccc(O)cc2)NC(=O)[C@H](C(C)C)NC(=O)[C@H](CCCNC(=N)N)NC(=O)[C@H](Cc2ccccc2)NC(=O)[C@H](Cc2ccccc2)NC(=O)CSC[C@@H](C(=O)NCC(N)=O)NC1=O [Example 1006] ({CH2CO}-FFRVYSGWFWLCG-NH2; thioether N-12)
13 | 479 nM | CC(C)C[C@@H]1NC(=O)[C@H](CO)NC(=O)[C@H](Cc2ccccc2)N(C)C(=O)CNC(=O)[C@H](Cc2ccc(O)cc2)NC(=O)[C@H](Cc2ccccc2)NC(=O)CSC[C@@H](C(N)=O)NC(=O)[C@H](Cc2c[nH]c3ccccc23)NC(=O)[C@H](Cc2ccc(O)cc2)NC1=O [Example 1111] ({CH2CO}-FYG[NMeF]SLYWC-NH2; thioether N-9)
14 | 324 nM | CC(C)C[C@@H]1NC(=O)[C@H](Cc2ccc(O)cc2)NC(=O)[C@H](c2ccccc2)NC(=O)CSC[C@@H](C(=O)NCC(N)=O)NC(=O)[C@H](CC(C)C)NC(=O)[C@H](Cc2ccccc2)N(C)C(=O)[C@H](Cc2ccc(O)cc2)NC(=O)[C@H](Cc2c[nH]c3ccccc23)NC(=O)CNC(=O)[C@H](CO)NC(=O)[C@H](Cc2ccc(O)cc2)NC(=O)[C@H](C(C)C)NC1=O [Example 1093] ({CH2CO}-[Phg]YLVYSGWY[NMeF]LCG-NH2; thioether N-12)
15 | 38 nM | CC(C)C[C@@H]1NC(=O)[C@H](Cc2ccc(O)cc2)NC(=O)[C@H](Cc2ccccc2)NC(=O)CSC[C@@H](C(=O)NCC(N)=O)NC(=O)[C@H](CC(C)C)NC(=O)[C@H](Cc2ccccc2)N(C)C(=O)[C@H](Cc2ccc(O)cc2)NC(=O)[C@H](Cc2c[nH]c3ccccc23)NC(=O)CNC(=O)[C@H](Cc2ccccc2)NC(=O)[C@H](Cc2ccc(O)cc2)NC(=O)[C@H](C(C)C)NC1=O [Example 1043] ({CH2CO}-FYLVYFGWY[NMeF]LCG-NH2; thioether N-12)
16 | 35 nM | CC(C)C[C@@H]1NC(=O)[C@H](Cc2ccc(O)cc2)NC(=O)[C@H](Cc2ccccc2)NC(=O)CSC[C@@H](C(=O)NCC(N)=O)NC(=O)[C@H](CC(C)C)NC(=O)[C@H](Cc2ccccc2)N(C)C(=O)[C@H](Cc2ccc(O)cc2)NC(=O)[C@H](Cc2c[nH]c3ccccc23)NC(=O)CNC(=O)[C@H](Cc2c[nH]c3ccccc23)NC(=O)[C@H](CCCNC(=N)N)NC(=O)[C@H](C(C)C)NC1=O [Example 1054] ({CH2CO}-FYLVRWGWY[NMeF]LCG-NH2; thioether N-12)
17 | 518 nM | CC(C)C[C@@H]1NC(=O)[C@H](Cc2ccc(O)cc2)NC(=O)[C@H](CC(N)=O)NC(=O)CSC[C@@H](C(=O)NCC(N)=O)NC(=O)[C@H](CC(C)C)NC(=O)[C@H](Cc2ccccc2)N(C)C(=O)[C@H](Cc2ccc(O)cc2)NC(=O)[C@H](Cc2c[nH]c3ccccc23)NC(=O)CNC(=O)[C@H](CO)NC(=O)[C@H](Cc2ccc(O)cc2)NC(=O)[C@H](C(C)C)NC1=O [Example 1076] ({CH2CO}-NYLVYSGWY[NMeF]LCG-NH2; thioether N-12)
18 | 86 nM | CC(C)C[C@@H]1NC(=O)[C@H](Cc2ccccc2)NC(=O)CSC[C@@H](C(N)=O)NC(=O)[C@H](C(C)C)NC(=O)[C@H](Cc2ccccc2)N(C)C(=O)[C@H](CC(C)C)NC(=O)[C@H](Cc2c[nH]c3ccccc23)NC(=O)CN(C)C(=O)CNC(=O)[C@H](C(C)C)NC(=O)[C@H](Cc2c[nH]c3ccccc23)NC1=O [Example 1203] ({CH2CO}-FLWVG[Sar]WL[NMeF]VC-NH2; thioether N-11)
19 | 870 nM | CC(C)C[C@@H]1NC(=O)[C@H](Cc2ccc(O)cc2)NC(=O)[C@H](Cc2ccccc2)NC(=O)CSC[C@@H](C(=O)NCC(N)=O)NC(=O)[C@H](CC(C)C)NC(=O)[C@H](Cc2ccccc2)N(C)C(=O)[C@H](Cc2ccc(O)cc2)NC(=O)[C@H](Cc2c[nH]c3ccccc23)NC(=O)CNC(=O)[C@H](CO)NC(=O)[C@H](C)NC(=O)[C@H](C(C)C)NC1=O [Example 1027] ({CH2CO}-FYLVASGWY[NMeF]LCG-NH2; thioether N-12)
20 | 9 nM | CC(C)C[C@@H]1NC(=O)[C@H](Cc2ccc(O)cc2)NC(=O)[C@H](Cc2ccccc2)NC(=O)CSC[C@@H](C(=O)NCC(N)=O)NC(=O)[C@H](CC(C)C)NC(=O)[C@H](Cc2ccccc2)N(C)C(=O)[C@H](Cc2ccc(O)cc2)NC(=O)[C@H](Cc2c[nH]c3ccccc23)NC(=O)CNC(=O)[C@H](Cc2ccc(O)cc2)NC(=O)[C@H](Cc2ccc(O)cc2)NC(=O)[C@H](C(C)C)NC1=O [Example 1045] ({CH2CO}-FYLVYYGWY[NMeF]LCG-NH2; thioether N-12)
21 | 100 nM | CC(C)CC1NC(=O)[C@H](Cc2ccc(O)cc2)NC(=O)[C@H](Cc2ccccc2)NC(=O)CSC[C@@H](C(=O)NCC(N)=O)NC(=O)[C@H](Cc2ccccc2)N(C)C(=O)[C@H](Cc2ccc(O)cc2)NC(=O)[C@H](Cc2c[nH]c3ccccc23)NC(=O)C(Cc2ccc(O)cc2)NC(=O)[C@H](C(C)C)NC1=O (stereo partly drawn) [Example 1113] ({CH2CO}-FY[ξL]V[ξY]WY[NMeF]CG-NH2; thioether N-9)
